From patent US20260026505A1, “HERBICIDAL COMPOSITIONS” (SYNGENTA CROP PROTECTION AG, priority 2022, published 2026)
Values joined by “and” are separate entries in the source; they are usually repeats but may differ in a detail not shown here. Equal entries are not always repeated.

Legend:
Assay type in all cases: in vivo
Conditions in all cases: after 13 days
[1] = test system: Lolium perenne (LOLPE); test: Glasshouse herbicide test, sprayed 1 day after sowing, visual percentage phytotoxicity, Colby synergy
Protocol: (§1) Seeds of Amaranthus retroflexus (AMARE), Echinochloa crus-galli (ECHCG), Digitaria sanguinalis (DIGSA), Lolium perenne (LOLPE), Alopecurus myosuroides (ALOMY), Chenopodium album (CHEAL), Setaria faberi(SETFA), Abutilon theophrasti(ABUTH), Setaria viridis (SETVI) and Ipomoea hederacea (IPOHE) were sown in standard sterilised soil in pots. After cultivation for 1 day under controlled conditions in a glasshouse (at 24/16° C., day/night; 14 hours light; 65% humidity), the plants were sprayed at 500 l/Ha with an aqueous spray solution derived from the formulation of the technical active ingredients in a small amount of acetone and a solvent and emulsifier mixture referred to as IF50 (11.12% Emulsogen EL360 TM+44.44% N-methylpyrrolidone+44.44% Dowanol DPM glycol ether), to create a 50 g/l solution which was then diluted using 0.2% Genapol X080 (CAS Number: 9043-30-5) as diluent to give the desired final dose of test compound. Where active ingredients were applied as mixtures, aqueous spray solutions were prepared as above, containing both active ingredients. The test plants were then grown under controlled conditions in a glasshouse (at 24/16° C., day/night; 14 hours light; 65% humidity) and watered twice daily. After 13 days, the test was evaluated visually for percentage phytotoxicity to the plants (where 100=total damage to plant; 0=no damage to plant) when compared to control untreated plants. Two to four replicates were applied for each treatment in a randomised block test design.
(§2) 22., E=X+Y−(X*Y/100), where • X=average percent phytotoxicity of herbicide A when applied at a certain rate • Y=average percent phytotoxicity using herbicide B when applied at a certain rate • E=the expected effect of the mixture of herbicides A and B as calculated from the Colby formula.

[2] = test system: Alopecurus myosuroides (ALOMY); test: as above
Protocol: as §1, §2

[3] = test system: Abutilon theophrasti (ABUTH); test: as above
Protocol: as §1, §2

[4] = test system: Ipomoea hederacea (IPOHE); test: as above
Protocol: as §1, §2

[5] = test system: Digitaria sanguinalis (DIGSA); test: as above
Protocol: as §1, §2

[6] = test system: Setaria viridis (SETVI); test: as above
Protocol: as §1, §2

[7] = test system: Amaranthus retroflexus (AMARE); test: as above
Protocol: as §1, §2

[8] = test system: Chenopodium album (CHEAL); test: as above
Protocol: as §1, §2

[9] = Glasshouse herbicide test, first A + B-20 table, weed species not given
Protocol: as §1, §2

[10] = test system: Echinochloa crus-galli (ECHCG); test: Glasshouse herbicide test, sprayed 1 day after sowing, visual percentage phytotoxicity, Colby synergy
Protocol: as §1, §2

[11] = test system: Setaria faberi (SETFA); test: as above
Protocol: as §1, §2

For `CCCN(CCC)C(=O)SCc1ccccc1` [Compound B-7], the “Observed (percentage phytotoxicity)” value ([1]; 62.5 g/ha) was 10%, the “Observed (percentage phytotoxicity)” value ([1]; 125 g/ha) was 8% and the “Observed (percentage phytotoxicity)” value ([1]; 250 g/ha) was 10%. The “Observed (percentage phytotoxicity)” value ([2]; 125 g/ha) was 15%, the “Observed (percentage phytotoxicity)” value ([2]; 250 g/ha) was 10% and the “Observed (percentage phytotoxicity)” value ([3]; 62.5 g/ha) was 8%. The “Observed (percentage phytotoxicity)” value ([3]; 125 g/ha) was 15%, the “Observed (percentage phytotoxicity)” value ([4]; 31.25 g/ha) was 10% and the “Observed (percentage phytotoxicity)” value ([4]; 62.5 g/ha) was 5%. For the same compound, the “Observed (percentage phytotoxicity)” value ([4]; 125 g/ha) was 8%, the “Observed (percentage phytotoxicity)” value ([4]; 250 g/ha) was 20% and the “Observed (percentage phytotoxicity)” value ([5]; 62.5 g/ha) was 13%. The “Observed (percentage phytotoxicity)” value ([5]; 125 g/ha) was 3%, the “Observed (percentage phytotoxicity)” value ([6]; 31.25 g/ha) was 5% and the “Observed (percentage phytotoxicity)” value ([6]; 125 g/ha) was 8%. The “Observed (percentage phytotoxicity)” value ([7]; 62.5 g/ha) was 48%, the “Observed (percentage phytotoxicity)” value ([7]; 250 g/ha) was 45% and the “Observed (percentage phytotoxicity)” value ([8]; 62.5 g/ha) was 9%. The “Observed (percentage phytotoxicity)” value ([8]; 125 g/ha) was 15% and the “Observed (percentage phytotoxicity)” value ([8]; 250 g/ha) was 15%.

In the case of `O=C(Nc1ccc(F)cc1F)c1cccnc1Oc1cccc(C(F)(F)F)c1` [Compound B-20], the “Observed (percentage phytotoxicity)” value ([9]; 15.63 g/ha) is reported as 23%, the “Observed (percentage phytotoxicity)” value ([9]; 31.25 g/ha) is reported as 23% and the “Observed (percentage phytotoxicity)” value ([3]; 3.91 g/ha) is reported as 8%. The “Observed (percentage phytotoxicity)” value ([3]; 15.63 g/ha) was 20%, the “Observed (percentage phytotoxicity)” value ([3]; 31.25 g/ha) was 18% and the “Observed (percentage phytotoxicity)” value ([4]; 31.25 g/ha) was 5%. For the same compound, the “Observed (percentage phytotoxicity)” value ([5]; 31.25 g/ha) was 68%, the “Observed (percentage phytotoxicity)” value ([8]; 15.63 g/ha) was 8% and the “Observed (percentage phytotoxicity)” value ([10]; 15.63 g/ha) was 10%.

In the case of `CC1(C)CON(Cc2ccc(Cl)cc2Br)C1=O` [A], the “Observed (percentage phytotoxicity)” value ([9]; 15.63 g/ha) is reported as 10%, the “Observed (percentage phytotoxicity)” value ([9]; 31.25 g/ha) is reported as 21% and the “Observed (percentage phytotoxicity)” value ([1]; 3.91 g/ha) is reported as 8%. For the same compound, the “Observed (percentage phytotoxicity)” value ([1]; 7.81 g/ha) was 13%, the “Observed (percentage phytotoxicity)” value ([1]; 15.63 g/ha) was 13% and the “Observed (percentage phytotoxicity)” value ([1]; 31.25 g/ha) was 35% and 18%. For the same compound, the “Observed (percentage phytotoxicity)” value ([1]; 62.5 g/ha) was 43% and 30%, the “Observed (percentage phytotoxicity)” value ([2]; 7.81 g/ha) was 5% and the “Observed (percentage phytotoxicity)” value ([2]; 15.63 g/ha) was 10%. The “Observed (percentage phytotoxicity)” value ([2]; 31.25 g/ha) was 21% and 16%, the “Observed (percentage phytotoxicity)” value ([2]; 62.5 g/ha) was 40% and the “Observed (percentage phytotoxicity)” value ([2]; 125 g/ha) was 68%. For the same compound, the “Observed (percentage phytotoxicity)” value ([3]; 7.81 g/ha) was 6%, the “Observed (percentage phytotoxicity)” value ([3]; 31.25 g/ha) was 5% and 11% and the “Observed (percentage phytotoxicity)” value ([3]; 125 g/ha) was 31%. For the same compound, the “Observed (percentage phytotoxicity)” value ([11]; 7.81 g/ha) was 13%, the “Observed (percentage phytotoxicity)” value ([11]; 15.63 g/ha) was 11% and the “Observed (percentage phytotoxicity)” value ([11]; 31.25 g/ha) was 41%. For the same compound, the “Observed (percentage phytotoxicity)” value ([4]; 7.81 g/ha) was 1% and 0%, the “Observed (percentage phytotoxicity)” value ([4]; 15.63 g/ha) was 0% and 5% and the “Observed (percentage phytotoxicity)” value ([4]; 31.25 g/ha) was 1%. For the same compound, the “Observed (percentage phytotoxicity)” value ([4]; 62.5 g/ha) was 1%, the “Observed (percentage phytotoxicity)” value ([5]; 3.91 g/ha) was 4% and the “Observed (percentage phytotoxicity)” value ([5]; 7.81 g/ha) was 3%. For the same compound, the “Observed (percentage phytotoxicity)” value ([5]; 15.63 g/ha) was 5%, the “Observed (percentage phytotoxicity)” value ([5]; 31.25 g/ha) was 11% and the “Observed (percentage phytotoxicity)” value ([5]; 62.5 g/ha) was 68%. The “Observed (percentage phytotoxicity)” value ([6]; 7.81 g/ha) was 10%, the “Observed (percentage phytotoxicity)” value ([6]; 15.63 g/ha) was 26% and the “Observed (percentage phytotoxicity)” value ([7]; 3.91 g/ha) was 11%. The “Observed (percentage phytotoxicity)” value ([7]; 31.25 g/ha) was 21%, the “Observed (percentage phytotoxicity)” value ([7]; 62.5 g/ha) was 31% and 50% and the “Observed (percentage phytotoxicity)” value ([7]; 125 g/ha) was 74%. For the same compound, the “Observed (percentage phytotoxicity)” value ([8]; 15.63 g/ha) was 21%, the “Observed (percentage phytotoxicity)” value ([10]; 7.81 g/ha) was 25% and 34% and the “Observed (percentage phytotoxicity)” value ([10]; 15.63 g/ha) was 48%.

With `Cn1nc(C(F)(F)F)c(CS(=O)(=O)C2=NOC(C)(C)C2)c1OC(F)F` [Compound B-9] the “Observed (percentage phytotoxicity)” value ([1]; 1.95 g/ha) was 14%, the “Observed (percentage phytotoxicity)” value ([1]; 3.91 g/ha) was 40% and the “Observed (percentage phytotoxicity)” value ([1]; 7.81 g/ha) was 44%. The “Observed (percentage phytotoxicity)” value ([1]; 15.63 g/ha) was 48%, the “Observed (percentage phytotoxicity)” value ([1]; 31.25 g/ha) was 66% and the “Observed (percentage phytotoxicity)” value ([3]; 3.91 g/ha) was 40%. For the same compound, the “Observed (percentage phytotoxicity)” value ([3]; 7.81 g/ha) was 55%, the “Observed (percentage phytotoxicity)” value ([4]; 7.81 g/ha) was 53% and the “Observed (percentage phytotoxicity)” value ([4]; 15.63 g/ha) was 73%. The “Observed (percentage phytotoxicity)” value ([5]; 1.95 g/ha) was 13%, the “Observed (percentage phytotoxicity)” value ([5]; 3.91 g/ha) was 43% and the “Observed (percentage phytotoxicity)” value ([5]; 7.81 g/ha) was 65%. The “Observed (percentage phytotoxicity)” value ([7]; 1.95 g/ha) was 40%.

With `CC(C)N(C(=O)COc1nnc(C(F)(F)F)s1)c1ccc(F)cc1` [Compound B-16] the “Observed (percentage phytotoxicity)” value ([1]; 3.91 g/ha) was 45%, the “Observed (percentage phytotoxicity)” value ([3]; 15.63 g/ha) was 23% and the “Observed (percentage phytotoxicity)” value ([4]; 3.91 g/ha) was 5%. For the same compound, the “Observed (percentage phytotoxicity)” value ([4]; 7.81 g/ha) was 8%, the “Observed (percentage phytotoxicity)” value ([7]; 31.25 g/ha) was 70% and the “Observed (percentage phytotoxicity)” value ([8]; 15.63 g/ha) was 48%.

In the case of `CS(=O)(=O)c1ccc(C(=O)C2C(=O)CCCC2=O)c([N+](=O)[O-])c1` [Compound B-4], the “Observed (percentage phytotoxicity)” value ([2]; 3.91 g/ha) is reported as 0%, the “Observed (percentage phytotoxicity)” value ([2]; 7.81 g/ha) is reported as 3% and the “Observed (percentage phytotoxicity)” value ([3]; 3.91 g/ha) is reported as 78%. For the same compound, the “Observed (percentage phytotoxicity)” value ([11]; 3.91 g/ha) was 5%, the “Observed (percentage phytotoxicity)” value ([11]; 7.81 g/ha) was 3% and the “Observed (percentage phytotoxicity)” value ([11]; 15.63 g/ha) was 8%. The “Observed (percentage phytotoxicity)” value ([4]; 3.91 g/ha) was 10%, the “Observed (percentage phytotoxicity)” value ([5]; 3.91 g/ha) was 70% and the “Observed (percentage phytotoxicity)” value ([7]; 3.91 g/ha) was 53%. For the same compound, the “Observed (percentage phytotoxicity)” value ([7]; 7.81 g/ha) was 85%, the “Observed (percentage phytotoxicity)” value ([7]; 15.63 g/ha) was 85% and the “Observed (percentage phytotoxicity)” value ([7]; 31.25 g/ha) was 85%. For the same compound, the “Observed (percentage phytotoxicity)” value ([10]; 3.91 g/ha) was 5%.
